The target of experiment [1] is MMP-13 (Homo sapiens, UniProt P45452). Description: MMP-13 inhibition (thiopeptide or fluorescent peptide substrate). It is filed as biochemical. The method, then: (§1) These standard pharmacological test procedures are based on the cleavage of a thiopeptide substrates such as Ac-Pro-Leu-Gly(2-mercapto-4-methyl-pentanoyl)-Leu-Gly-OEt by the matrix metalloproteinases MMP-1, MMP-13 (collagenases) or MMP-9 (gelatinase), which results in the release of a substrate product that reacts calorimetrically with DTNB (5,5′-dithiobis(2-nitro-benzoic acid)). The enzyme activity is measured by the rate of the color increase. The thiopeptide substrate is made up fresh as a 20 mM stock in 100% DMSO and the DTNB is dissolved in 100% DMSO as a 100 mM stock and stored in the dark at room temperature. […] The buffer enzyme, vehicle or inhibitor, and DTNB/substrate are added in this order to a 96 well plate (total reaction volume of 200 μl) and the increase in color is monitored spectrophotometrically for 5 minutes at 405 nm on a plate reader and the increase in color over time is plotted as a linear line.
(§2) Alternatively, a fluorescent peptide substrate is used. […] Upon cleavage of the substrate by an MMP, the fluorescence that is generated is quantitated on the fluorescence plate reader. […] The reaction is read (excitation 340 nm, emission 444 nm) for 10 min. and the increase in fluorescence over time is plotted as a linear line.
(§3) For either the thiopeptide or fluorescent peptide test procedures, the slope of the line is calculated and represents the reaction rate. […]

The target of experiment [2] is T1, MMP-1 (Homo sapiens, UniProt P03956).
T1 sequence (P03956 100-469): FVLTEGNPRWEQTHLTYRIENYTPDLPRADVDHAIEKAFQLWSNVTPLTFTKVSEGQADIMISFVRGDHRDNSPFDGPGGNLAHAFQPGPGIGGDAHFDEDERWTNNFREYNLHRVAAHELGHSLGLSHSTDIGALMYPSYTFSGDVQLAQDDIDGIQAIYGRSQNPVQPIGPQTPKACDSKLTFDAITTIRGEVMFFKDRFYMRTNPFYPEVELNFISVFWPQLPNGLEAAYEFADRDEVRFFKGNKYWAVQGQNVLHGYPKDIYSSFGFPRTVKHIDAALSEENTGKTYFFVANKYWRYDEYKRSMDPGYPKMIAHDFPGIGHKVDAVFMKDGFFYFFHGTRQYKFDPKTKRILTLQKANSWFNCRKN
Put plainly: MMP-1 inhibition (thiopeptide or fluorescent peptide substrate). The format is biochemical. As for the experimental part:
as §1, §2, §3

The test system of experiment [3] is THP-1 cells. Put plainly: THP-1 soluble protein assay (LPS-stimulated THP-1 cells, ELISA). The format is cell-based. As to conditions: Homo sapiens. The source says:
Mitogenic stimulation of THP-1 cells cause differentiation into macrophage like cells with concomitant secretion of tumor necrosis factor (TNF-_) and TNF receptor (TNF-R p75/80 and TNF-R p55/60) and Interleukin-8 (IL-8), among other proteins. In addition, non-stimulated THP-1 cells shed both the p75/80 and the p55/60 receptors over time. The release of membrane bound TNF-_ and possibly TNF-R p75/80 and TNF-R p55/60, but not IL-8, is mediated by an enzyme called TNF-_ converting enzyme or TACE.
THP-1 cells (from ATCC) are a human monocytic cell line which were obtained from the peripheral blood of a person with acute monocytic leukemia. […]
To perform an assay, the THP-1 cells are co-incubated in a 24 well plate with […] of a 24 mg/ml stock of Lipopolysacharide (LPS) (Calbiochem Lot#B13189) at 37iC in 5% CO2 at a concentration of 1.091×10^6 cells/ml (1.1 ml/well) for a total of 24 hours. […] Compounds can be evaluated for their effect on basal (non-stimulated) shedding of the receptors by replacing the LPS with […] of THP-1 media. […]
In addition, at the 24 hours timepoint, and the cells for each treatment group are collected by resuspension in 500 μl/well of THP-1 media and transferred into a FACS tube. […] The samples are run on a Becton Dickinson FaxCaliber FLOW cytometry machine and the amount of dye taken up by each cell is measured in the high red wavelength (FL3). […]
Background: An ELISA detects its analyte on a solid surface through an enzyme-linked reagent.

The target of experiment [4] is TACE (Homo sapiens, UniProt P78536). Description: TACE inhibition (fluorescent peptidyl substrate). It is filed as biochemical. The method, then: Using 96-well black microtiter plates, each well receives a solution composed of 10 μL TACE (final concentration 1 μg/mL), 70 μL Tris buffer, pH 7.4 containing 10% glycerol (final concentration 10 mM), and 10 μL of test compound solution in DMSO (final concentration 1 μM, DMSO concentration <1%) and incubated for 10 minutes at room temperature. The reaction is initiated by addition of a fluorescent peptidyl substrate (final concentration 100 μM) to each well and then shaking on a shaker for 5 sec.
Chain of TACE (P78536 215-824): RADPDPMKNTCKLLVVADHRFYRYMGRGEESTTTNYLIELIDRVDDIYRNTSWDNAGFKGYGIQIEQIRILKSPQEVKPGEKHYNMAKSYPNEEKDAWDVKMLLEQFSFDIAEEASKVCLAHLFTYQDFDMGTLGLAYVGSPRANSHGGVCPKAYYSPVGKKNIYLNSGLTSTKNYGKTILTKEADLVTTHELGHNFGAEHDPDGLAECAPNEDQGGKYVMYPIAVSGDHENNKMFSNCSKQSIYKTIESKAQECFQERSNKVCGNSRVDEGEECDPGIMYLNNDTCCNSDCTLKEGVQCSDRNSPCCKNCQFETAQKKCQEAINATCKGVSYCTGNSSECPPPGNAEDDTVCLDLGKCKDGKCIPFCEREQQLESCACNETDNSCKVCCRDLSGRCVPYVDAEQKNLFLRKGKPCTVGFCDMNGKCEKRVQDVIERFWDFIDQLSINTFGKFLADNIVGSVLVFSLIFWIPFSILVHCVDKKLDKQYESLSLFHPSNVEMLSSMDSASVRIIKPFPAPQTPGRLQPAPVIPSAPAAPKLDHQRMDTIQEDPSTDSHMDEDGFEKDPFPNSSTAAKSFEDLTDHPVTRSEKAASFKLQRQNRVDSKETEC
The reaction is read (excitation 340 nm, emission 420 nm) for 10 min. and the increase in fluorescence over time is plotted as a linear line. The slope of the line is calculated and represents the reaction rate.
The linearity of the reaction rate is confirmed (r^2>0.85). The mean (x±sem) of the control rate is calculated and compared for statistical significance (p<0.05) with drug-treated rates using Dunnett's multiple comparison test. Dose-response relationships can be generate using multiple doses of drug and IC50 values with 95% CI are estimated using linear regression.

Experiment [5] has as its target MMP-9 (Homo sapiens, UniProt P14780). Description: MMP-9 inhibition (thiopeptide or fluorescent peptide substrate). It is filed as biochemical. As for the experimental part:
as §1, §2, §3

Chain of MMP-9 (P14780 94-707): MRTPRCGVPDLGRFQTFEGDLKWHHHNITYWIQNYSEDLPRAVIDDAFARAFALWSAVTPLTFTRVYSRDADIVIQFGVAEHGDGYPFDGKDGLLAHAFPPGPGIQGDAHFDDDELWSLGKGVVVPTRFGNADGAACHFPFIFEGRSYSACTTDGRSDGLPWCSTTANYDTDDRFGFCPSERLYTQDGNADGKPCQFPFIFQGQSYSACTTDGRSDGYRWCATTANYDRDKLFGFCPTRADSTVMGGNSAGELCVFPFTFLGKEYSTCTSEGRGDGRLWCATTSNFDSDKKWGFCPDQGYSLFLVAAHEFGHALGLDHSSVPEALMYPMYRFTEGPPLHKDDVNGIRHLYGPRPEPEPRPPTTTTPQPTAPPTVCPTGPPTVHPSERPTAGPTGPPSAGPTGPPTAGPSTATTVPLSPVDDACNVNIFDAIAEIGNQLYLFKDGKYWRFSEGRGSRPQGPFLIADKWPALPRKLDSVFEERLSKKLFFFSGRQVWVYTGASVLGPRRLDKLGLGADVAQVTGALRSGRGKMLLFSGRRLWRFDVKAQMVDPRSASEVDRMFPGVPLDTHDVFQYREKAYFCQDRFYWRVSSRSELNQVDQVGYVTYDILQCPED

By IC50 is commonly meant the concentration that inhibits the measured activity by half. A low value points to inhibition by little substance. By inhibition is commonly meant the drop in the measured response relative to a control, in per cent. A low value points to a response near the control. For the compound `CC#CCOc1ccc(S(=O)(=O)N(C)[C@H](C)CS)cc1` [Example 8, 4-But-2-ynyloxy-N-((1R)-2-mercapto-1-methyl-ethyl)-N-methyl-benzenesulfonamide], the IC50 in experiment [1] was 0.679 µM; in experiment [2], 6.3 µM; in experiment [4], 0.273 µM; in experiment [5], 2.7 µM. Moreover, 3 µM produced 3% inhibition in experiment [3].

Values taken from patent publication US20020103163A1, “Acetylenic sulfonamide thiol TACE inhibitors” (American Cyanamid Company, priority 1999, published 2002).
